In brackets after ≈: the same amount, converted by molar mass. Several values for one entry are separate records, joined by “and”; a condition that tells them apart may be missing. Equal entries are not always repeated. Where two headings read alike, the source gives them in different places.
Legend:
[1] = test system: Methicillin Resistant Staphylococcus aureus (MRSA) and Staphylococcus aureus; format: cell-based
Procedure: (§1) Minimal inhibitory concentrations (MICs) are determined using a standard microtiter dilution method, with 3 sets of determinations, in LB (Luria-Bertani) no-salt medium (10 g of tryptone and 5 g of yeast extract per liter). In some cases, Mueller Hinton (MH) medium or Brain Heart Infusion (BHI) medium is used.
(§2) Briefly, cells were grown overnight at 37° C. in LB and diluted in the same medium. Serial dilutions of the peptides are added to the microtiter plates in a volume of 100 μl followed by 10 μl of bacteria to give a final inoculum of 5×10^5 colony-forming units/ml. Plates are incubated at 37° C. for 24 hours and MICs determined as the lowest peptide concentration that inhibited growth. Alternatively, minimal inhibitory concentrations are determined using a standard microtiter dilution method in a Mueller-Hinton (MH) medium. Briefly, cells are grown overnight at 37° C. in MH broth and diluted in the same medium. In some cases, serial dilutions of the peptides are added to the microtiter plates in a volume of 100 μl followed by 10 μl of bacteria to give a final inoculum of 1×10^5 colony-forming units/ml. Plates are incubated at 37° C. for 24 hours and MICs are determined as the lowest peptide concentration that inhibited growth.
Identification of Antimicrobial Peptides for Gram-positive Bacteria. In a manner similar to testing against gram-negative bacteria, experiments were carried out to screen the 14 peptides used to identify antimicrobial peptides with significant activity against A. baumanii shown above against 20 different clinical isolates of Methicillin Resistant Staphylococcus aureus (MRSA) and Staphylococcus aureus.

[2] = Hemolytic activity against human erythrocytes (HC50 / MHC, microtiter dilution); format: cell-based; conditions: human, 1% human erythrocytes, pH 7.4
Procedure: Hemoglobin release was determined spectrophotometrically at 570 nm. The hemolytic activity was determined as the peptide concentration that caused 50% hemolysis of erythrocytes after 18 h (HC50). […] HC50 was determined by a plot of peptide concentration versus percent lysis.

[3] = RP-HPLC temperature profiling (peptide self-association parameter PA); format: physicochemical; conditions: RP-HPLC temperature profiling 5-80° C., pH 2, relative to control peptide C
Procedure: Temperature profiling analyses were performed on the same column in 3° C. increments, from 5° C. to 80° C., using a linear AB gradient of 0.5% acetonitrile/min, as described previously (30, 53, 92, 93).
Peptide self-association (i.e., the ability to oligomerize/dimerize) in aqueous solution is a very important parameter for antimicrobial activity (53, 92, 93). Without wishing to be bound by any particular theory, the present inventors postulated that monomeric random-coil antimicrobial peptides are best suited to pass through the capsule and cell wall of microorganisms prior to penetration into the cytoplasmic membrane, induction of α-helical structure and disruption of membrane structure to kill target cells (93). Thus, if the self-association ability of a peptide in aqueous media is too strong (e.g., forming stable folded dimers through interaction of their non-polar faces) this could decrease the ability of the peptide to dissociate to monomer, in addition oligomerization of the peptide can prevent it from effectively passing through the capsule and cell wall to reach the membrane. The ability of the peptides in the present study to self-associate was determined by the technique of RP-HPLC temperature profiling at pH 2 (29, 30, 38). The reason pH 2 is used to determine self-association of cationic AMPs is that highly positively charged peptides are frequently not eluted from reversed-phase columns at pH 7 due to non-specific binding to negatively charged silanols on the column matrix. This is not a problem at pH 2 since the silanols are protonated (i.e., neutral) and non-specific electrostatic interactions are eliminated. At pH 2, the interactions between the peptide and the reversed-phase matrix involve ideal retention behavior, i.e., only hydrophobic interactions between the preferred binding domain (nonpolar face) of the amphipathic molecule and the hydrophobic surface of the column matrix are present (39). […] Control peptide C is a monomeric random coil peptide in both aqueous and hydrophobic media; thus, its linear decrease in peptide retention behavior with increasing temperature within the range of 5° C. to 80° C. represents only the general effects of temperature due to greater solute diffusivity and enhanced mass transfer between the stationary and mobile phase at higher temperatures (55). To allow for these general temperature effects, the data for the control peptide was subtracted from each temperature profile as shown in FIG. 2B. Thus, the peptide self-association parameter, PA, represents the maximum change in peptide retention time relative to the random coil peptide C. Note that the higher the PA value, the greater the self-association.

[4] = RP-HPLC retention as measure of overall peptide hydrophobicity; format: physicochemical; conditions: pH 2, room temperature
Procedure: Crude and purified peptides were analyzed on an Agilent 1100 series liquid chromatograph (Little Falls, Del.). Runs were performed on a Zorbax 300 SB-C8 column (150×2.1 mm I.D.; 5 μm particle size, 300 Å pore size) from Agilent Technologies using linear AB gradient (1% acetonitrile/min) and a flow rate of 0.25 ml/min, where eluant A was 0.2% aqueous TFA, pH 2 and eluant B was 0.2% TFA in acetonitrile.

Acinetobacter baumannii = format: cell-based
Procedure: as §1, §2
The biological activities of these six peptide analogs was determined against 11 clinical isolated of Acinetobacter baumannii (Table 9). Please note that the activities are reported in micromolar rather than microgram/ml. This allows a direct comparison on a molar basis with the effectiveness of molecules of different molecular weights whether peptides disclosed herein or antibiotics which in general are smaller in molecular mass. […] These are the highest antimicrobial activities observed in studies of antimicrobial peptides derived by modifying the peptide sequence of SEQ ID NO:24 (D1). D22 has the best hemolytic activity of the six analogs (D17-D22) and a therapeutic index of […] compared to […] for D1 (Table 9). D22 has no apparent advantage over D1 as determined in these experiments.

Pseudomonas aeruginosa = conditions: for MIC PAO 1: 37° C., 24 h, strain PAO1; for MIC GM (geometric mean of the MIC values): six P. aeruginosa strains; for MIC CP 204: strain CP204; for MIC M 2: strain M2; for MIC PA 14: strain PA14; for MIC PAK: strain PAK; for MIC WR 5: strain WR5

SMILES | MIC GM (geometric mean) [1] [µM] | HC50 at 18 h [2] | PA (dimerization / self-association parameter) [3] | Hydrophobicity (retention time in RP-HPLC) [4] [min] | MIC GM (geometric mean) (Acinetobacter baumannii) [µM] | MIC PAO 1 (Pseudomonas aeruginosa; Brain Heart Infusion medium) [µg/mL] | MIC GM (geometric mean of the MIC values) (Pseudomonas aeruginosa; Brain Heart Infusion medium) [µg/mL] | MIC CP 204 (Pseudomonas aeruginosa; Brain Heart Infusion medium) [µg/mL] | MIC M 2 (Pseudomonas aeruginosa; Brain Heart Infusion medium) [µg/mL] | MIC PA 14 (Pseudomonas aeruginosa; Brain Heart Infusion medium) [µg/mL] | MIC PAK (Pseudomonas aeruginosa; Brain Heart Infusion medium) [µg/mL] | MIC WR 5 (Pseudomonas aeruginosa; Brain Heart Infusion medium) [µg/mL] | MIC PAO 1 (Pseudomonas aeruginosa; Mueller Hinton medium) [µg/mL] | MIC GM (geometric mean of the MIC values) (Pseudomonas aeruginosa; Mueller Hinton medium) [µg/mL] | MIC CP 204 (Pseudomonas aeruginosa; Mueller Hinton medium) [µg/mL] | MIC M 2 (Pseudomonas aeruginosa; Mueller Hinton medium) [µg/mL] | MIC PA 14 (Pseudomonas aeruginosa; Mueller Hinton medium) [µg/mL] | MIC PAK (Pseudomonas aeruginosa; Mueller Hinton medium) [µg/mL] | MIC WR 5 (Pseudomonas aeruginosa; Mueller Hinton medium) [µg/mL] | MIC (Acinetobacter baumannii; 24 h) [µM]
CC[C@@H](C)[C@@H](NC(=O)[C@@H](C)NC(=O)[C@@H](CCCCN)NC(=O)[C@@H](CC(C)C)NC(=O)[C@@H](CC(C)C)NC(=O)[C@H](NC(=O)[C@@H](CCCCN)NC(=O)[C@@H](CC(C)C)NC(=O)[C@@H](C)NC(=O)[C@@H](CCCCN)NC(=O)[C@@H](CCCCN)NC(=O)[C@@H](CCCCN)NC(=O)[C@@H](C)NC(=O)[C@@H](CCCCN)NC(=O)[C@@H](CO)NC(=O)[C@@H](Cc1ccccc1)NC(=O)[C@H](NC(=O)[C@@H](CCCCN)NC(=O)[C@@H](CC(C)C)NC(=O)[C@@H](Cc1ccccc1)NC(=O)[C@@H](CO)NC(=O)[C@@H](CO)NC(=O)[C@@H](Cc1c[nH]c2ccccc12)NC(=O)[C@@H](CO)NC(C)=O)[C@H](C)O)[C@H](C)O)C(=O)N[C@H](CO)C(=O)N[C@H](CO)C(N)=O [Peptide D19, Ac-SWSSFLKTFSKAKKKALKTLLKAISS-amide] | 5.3 (≈ 15.6 µg/mL) | 36 µg/mL and 12.2 µM | 7.07 | 97.94 | 0.8 (≈ 2.35 µg/mL) | 7.8 (≈ 2.65 µM) | 9.8 | 15.6 (≈ 5.31 µM) | 7.8 (≈ 2.65 µM) | 3.9 (≈ 1.33 µM) | 15.6 (≈ 5.31 µM) | 15.6 (≈ 5.31 µM) | 3.9 (≈ 1.33 µM) | 7.8 | 15.6 (≈ 5.31 µM) | 15.6 (≈ 5.31 µM) | 3.9 (≈ 1.33 µM) | 3.9 (≈ 1.33 µM) | 15.6 (≈ 5.31 µM) | 
CC[C@@H](C)[C@@H](NC(=O)[C@@H](C)NC(=O)[C@@H](CCCCN)NC(=O)[C@@H](CC(C)C)NC(=O)[C@@H](CC(C)C)NC(=O)[C@H](NC(=O)[C@@H](CCCCN)NC(=O)[C@@H](CC(C)C)NC(=O)[C@@H](C)NC(=O)[C@@H](CCCCN)NC(=O)[C@@H](CCCCN)NC(=O)[C@@H](CCCCN)NC(=O)[C@@H](C)NC(=O)[C@@H](CCCCN)NC(=O)[C@@H](CO)NC(=O)[C@@H](Cc1ccccc1)NC(=O)[C@H](NC(=O)[C@@H](CCCCN)NC(=O)[C@@H](CC(C)C)NC(=O)[C@@H](Cc1ccccc1)NC(=O)[C@@H](CO)NC(=O)[C@@H](CCCCN)NC(=O)[C@@H](Cc1c[nH]c2ccccc12)NC(=O)[C@@H](CO)NC(C)=O)[C@H](C)O)[C@H](C)O)C(=O)N[C@H](CO)C(=O)N[C@H](CO)C(N)=O [Peptide D20, Ac-SWKSFLKTFSKAKKKALKTLLKAISS-amide] | 6.0 (≈ 17.9 µg/mL) | 77 µg/mL and 25.8 µM | 6.39 | 95.90 | 0.6 (≈ 1.79 µg/mL) | 7.8 (≈ 2.62 µM) | 9.8 | 15.6 (≈ 5.23 µM) | 7.8 (≈ 2.62 µM) | 7.8 (≈ 2.62 µM) | 15.6 (≈ 5.23 µM) | 7.8 (≈ 2.62 µM) | 7.8 (≈ 2.62 µM) | 12.4 | 31.3 (≈ 10.5 µM) | 15.6 (≈ 5.23 µM) | 7.8 (≈ 2.62 µM) | 7.8 (≈ 2.62 µM) | 15.6 (≈ 5.23 µM) | 
CC[C@@H](C)[C@@H](NC(=O)[C@@H](C)NC(=O)[C@@H](CO)NC(=O)[C@@H](CC(C)C)NC(=O)[C@@H](CC(C)C)NC(=O)[C@H](NC(=O)[C@@H](CCCCN)NC(=O)[C@@H](CC(C)C)NC(=O)[C@@H](C)NC(=O)[C@@H](CCCCN)NC(=O)[C@@H](CCCCN)NC(=O)[C@@H](CCCCN)NC(=O)[C@@H](C)NC(=O)[C@@H](CCCCN)NC(=O)[C@@H](CO)NC(=O)[C@@H](Cc1ccccc1)NC(=O)[C@H](NC(=O)[C@@H](CO)NC(=O)[C@@H](CC(C)C)NC(=O)[C@@H](Cc1ccccc1)NC(=O)[C@@H](CO)NC(=O)[C@@H](CO)NC(=O)[C@@H](Cc1c[nH]c2ccccc12)NC(=O)[C@@H](CO)NC(C)=O)[C@H](C)O)[C@H](C)O)C(=O)N[C@H](CO)C(=O)N[C@H](CO)C(N)=O [Peptide D17, Ac-SWSSFLSTFSKAKKKALKTLLSAISS-amide] | 19.7 (≈ 56.3 µg/mL) | 62 µg/mL and 21.7 µM | 7.96 | 98.81 | 0.7 (≈ 2 µg/mL) | 31.3 (≈ 11 µM) | 35.1 | 62.5 (≈ 21.9 µM) | 31.3 (≈ 11 µM) | 15.6 (≈ 5.46 µM) | 31.3 (≈ 11 µM) | 62.5 (≈ 21.9 µM) | 15.6 (≈ 5.46 µM) | 22.1 | 31.3 (≈ 11 µM) | 31.3 (≈ 11 µM) | 15.6 (≈ 5.46 µM) | 15.6 (≈ 5.46 µM) | 31.3 (≈ 11 µM) | 0.7 (≈ 2 µg/mL)
